# Key:
# [1] = tested on: MIA PaCa-2 human pancreas tumor xenograft; test: MIA PaCa-2 human pancreas tumor xenograft model (Example 3); format: in vivo; details: for Day 35 TW (mg) ± SEM: Day 35 mean tumor weight, Q3Dx4
# Experimental: SapC-DOPS was received from Bexion Pharmaceuticals, Inc. and were stored at […] until use. Separate aliquoted vials of SapC-DOPS for the 7.3 mg/kg dose were received. Separate aliquoted vials of vehicle were received, which contained DOPS and no SapC. Each vial was resuspended in 1.2 ml of sterile water for injection (Lot #JPJ551, 13/Braun Medical, Inc., Irvine Calif.). Once formulated, SapC-DOPS was delivered at a 10 ml/kg dose volume. SapC-DOPS and vehicle were formulated fresh daily and administered immediately after preparation.
# Gemcitabine (Lot #A735891A) was manufactured by Eli Lilly and Co. (Indianapolis, Ind.) and diluted in a 0.9% NaCl solution (B. Braun Medical, Inc., Irvine, Calif., Lot #J0K465) to a concentration of 4 mg/ml to deliver a 40 mg/kg dose at a 10 ml/kg dose volume. All preparations were made fresh prior to their administration.
# The MIA Paca-2 human pancreas tumor cell line was received from American Type Culture Collection (ATCC, Manassas, Va.). Cultures were maintained in RPMI-1640 (Hyclone, Logan, Utah) supplemented with 5% fetal bovine serum, and housed in a 5% CO2 atmosphere. The cultures were expanded in tissue culture flasks at a 1:4 split ratio until a sufficient amount of cells were harvested.
# Female NCR nude mice (CrTac:NCR-Foxn1^nu) were supplied by Taconic (Germantown, N.Y.). Mice were received at four weeks' of age, 12-15 g in weight. All mice were acclimated for seven days prior to handling. The mice were housed in microisolator cages (Lab Products, Seaford, Del.) and maintained under specific pathogen-free conditions. The mice were fed PicoLab® irradiated mouse chow (Lab Diet, Richmond, Ind.) and autoclaved water was freely available. […]
# Five days following inoculation, tumors were measured using calipers and tumor weight was calculated using the animal study management software, Study Director V. 1.7.54 k (Study Log)^1, Thirty mice with tumor sizes of 105-158 mg were pair-matched into three groups of ten mice each (Day 1). Body weights were recorded when the mice were pair-matched and were taken twice weekly thereafter in conjunction with tumor measurements. […]
# On Day 35, tumors were collected from two randomly selected mice per group. […] The lungs were fixed in formalin (Lot #4117, Azer Scientific, Morgantown, Pa.) and sent to the Mayo Clinic Histology (Scottsdale, Ariz.) to be paraffin blocked process through H&E. The lungs were analyzed by a pathologist at Mayo Clinic with emphasis on evidence of granuloma on the lungs.
# Mean tumor growth inhibition (TGI) was calculated utilizing the following formula (any tumors that regressed were not used in calculations): […]
# The mean tumor shrinkage of each group was calculated and reported. […]
# AsPC-1 cells = test: Surface PS (annexin V-APC) and TUNEL apoptosis stain, AsPC-1 (FIG. 3A); format: cell-based, human; details: for TUNEL positive: 24 h (CTL=0.3)
# Experimental: (§1) FIG. 3. GEM exposure triggers PS externalization in pancreatic tumor cells. AsPC-1 (A) and Mia-PaCa-2 (B) cells were treated with varying doses of GEM for 24 h, TUNEL apoptosis stain was performed after surface PS staining with annexin V-APC. The overlay histograms show TUNEL-negative (non-apoptotic) cells. TUNEL positive [AsPC-1: CTL=0.3; GEM 10 nM=2.5; GEM 100 nM=4.6]; [MIA-PaCa-2: CTL=3.6; GEM 1 μM=21].
# (§2) Importantly, in low surface PS cells a clear increase was evident using sub-toxic concentrations of GEM that caused <10% apoptosis.
# (§3) Various cell types were analyzed for surface PS exposure by flow cytometry with annexin V-FTIC. Involvement of flippases in the regulation of surface PS exposure was analyzed by flippase activity assay. Total cellular PS was quantified by TLC separation of phospholipids and estimation of PS phosphorous. Orthotopic PDAC tumors were established by injecting human or murine PDAC cells into animal pancreas. In vivo bioluminescence and fluorescence imaging were performed to monitor tumor targeting and growth. The molecular mechanisms underlying the induction of apoptosis by SapC-DOPS were evaluated in cultured PDAC cells through measurements of cell viability, TUNEL, and flow cytometric DNA fragmentation.
# MIA-PaCa-2 cells = test: Surface PS (annexin V-APC) and TUNEL apoptosis stain, MIA-PaCa-2 (FIG. 3B); format: cell-based, human
# Experimental: as §1, §2, §3
# PDAC cells = test: Surface PS exposure by flow cytometry with annexin V; format: cell-based; details: chemotherapy treatment of PDAC cells
# Experimental: as §3
compound,measurement,setting,value
Nc1ccn([C@@H]2O[C@H](CO)[C@@H](O)C2(F)F)c(=O)n1 [Gemcitabine],Total Deaths,"[1]; 10 mice per group, study to Day 35",0
same,Day 35 TW (mg) ± SEM,[1],936.0 ± 135.1 mg
same,Day 35 TW (mg) ± SEM,[1]; listed as gemcitabine,936.0 mg
same,tolerability,"[1]; mouse, in vivo",well tolerated
same,external PS in viable cells,"AsPC-1 cells; 24 h, varying doses, relatively low surface PS cell line",dose-dependent increase
same,TUNEL positive,AsPC-1 cells; GEM 10 nM,2.5
same,TUNEL positive,AsPC-1 cells; GEM 100 nM,4.6
same,apoptosis,AsPC-1 cells; sub-toxic concentrations of GEM giving a clear PS increase in low surface PS cells,< 10%
same,external PS in viable cells,"MIA-PaCa-2 cells; 24 h, varying doses, moderate surface PS cell line",dose-dependent increase
same,TUNEL positive,"MIA-PaCa-2 cells; GEM 1 μM, 24 h (CTL=3.6)",21
same,surface PS levels,PDAC cells,increase surface PS levels

# Source: patent publication US20220088042A1, “COMBINATION THERAPY INCLUDING SAPC-DOPS FOR THE TREATMENT OF PANCREATIC CANCER” (priority 2016, published 2022)
